Assay results: ChEMBL document CHEMBL1155421, “Evaluation of a 4-aminopiperidine replacement in several series of CCR5 antagonists” (Bioorg Med Chem Lett, 2010)

Legend:
[1] = molecular target: C-C chemokine receptor type 5 (Homo sapiens, UniProt P51681); assay: Displacement of […] from CCR5 receptor receptors expressed in CHO cells; format: cell-based
[2] = system: Human immunodeficiency virus 1; assay: Antiviral activity against HIV1 NLBal infected JC53BL cells assessed as inhibition of replication by luciferase reporter assay; format: functional, organism-based; conditions: Human immunodeficiency virus 1, NLBal

Chain of C-C chemokine receptor type 5 (P51681 whole entry): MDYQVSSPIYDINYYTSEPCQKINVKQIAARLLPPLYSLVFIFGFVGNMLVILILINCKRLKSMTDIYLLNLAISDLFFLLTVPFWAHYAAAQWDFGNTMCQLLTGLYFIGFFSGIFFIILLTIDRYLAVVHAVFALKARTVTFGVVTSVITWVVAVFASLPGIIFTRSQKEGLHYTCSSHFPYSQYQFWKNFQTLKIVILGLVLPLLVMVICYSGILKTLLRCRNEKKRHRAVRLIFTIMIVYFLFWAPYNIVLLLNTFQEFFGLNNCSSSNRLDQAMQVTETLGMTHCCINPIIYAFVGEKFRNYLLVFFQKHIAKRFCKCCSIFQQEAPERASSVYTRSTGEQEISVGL

SMILES	IC50 [1] [µM]	IC50 [2] [µM]
COC[C@@H](c1ccc(C(F)(F)F)cc1)N1CCN(C2C[C@@H]3CN(C(=O)c4c(C)ncnc4C)C[C@@H]3C2)C[C@@H]1C (some centres undefined)	> 0.5	> 0.625
COC[C@@H](c1ccc(C(F)(F)F)cc1)N1CCN(C2C[C@@H]3CN(C(=O)c4c(C)ccnc4C)C[C@@H]3C2)C[C@@H]1C (some centres undefined)	> 0.5	> 0.625
COC[C@@H](c1ccc(C(F)(F)F)cc1)N1CCN(C2C[C@@H]3CN(C(=O)c4c(C)cc(C#N)nc4C)C[C@@H]3C2)C[C@@H]1C (some centres undefined)	> 0.5	> 0.625
CCO[C@H]1Cc2cc(C(F)(F)F)ccc2[C@@H]1N1CCN(C2C[C@@H]3CN(C(=O)c4c(C)ncnc4C)C[C@@H]3C2)C[C@@H]1C (some centres undefined)	0.092	> 0.625
CCCC[C@H]1CN(CC2CCOCC2)C(=O)OC12CCN(C1C[C@@H]3CN(C(=O)c4c(C)ncnc4C)C[C@@H]3C1)CC2 (some centres undefined)	0.014	0.262
CCCC[C@H]1CN(CC2CCOCC2)C(=O)OC12CCN(C1C[C@@H]3CN(C(=O)c4c(C)cc(C#N)nc4C)C[C@@H]3C1)CC2 (some centres undefined)	0.015	0.009
CCCC[C@H]1CN(CC2CCOCC2)C(=O)OC12CCN(C1(C)C[C@H]3CN(C(=O)c4c(C)ncnc4C)C[C@H]3C1)CC2 (some centres undefined)	0.025	≥ 0.625
CCCC[C@H]1CN(C[C@H]2CC[C@H](OC(C)C)CC2)C(=O)OC12CCN(C1C[C@@H]3CN(C(=O)c4c(C)ncnc4C)C[C@@H]3C1)CC2 (some centres undefined)	0.023	0.012
CCCC[C@H]1CN(CC2CCOCC2)C(=O)OC12CCN(C1(C)CCN(C(=O)c3c(C)ncnc3C)CC1)CC2	0.004	

Continued by falling IC50 [1], values first:

IC50 [1] [µM]	IC50 [2] [µM]	SMILES
0.098	0.357	CCO[C@H]1Cc2cc(C(F)(F)F)ccc2[C@@H]1N1CCN(C2C[C@@H]3CN(C(=O)c4c(C)ccnc4C)C[C@@H]3C2)C[C@@H]1C (some centres undefined)
0.061	0.018	CCCC[C@H]1CN(CC2CCOCC2)C(=O)OC12CCN(C1(C)C[C@H]3CN(C(=O)c4c(C)cc(C#N)nc4C)C[C@H]3C1)CC2 (some centres undefined)
0.045	0.059	CCO[C@H]1Cc2cc(C(F)(F)F)ccc2[C@@H]1N1CCN(C2C[C@@H]3CN(C(=O)c4c(C)cc(C#N)nc4C)C[C@@H]3C2)C[C@@H]1C (some centres undefined)
0.044	0.019	CCCC[C@H]1CN(C[C@H]2CC[C@H](OCC)CC2)C(=O)OC12CCN(C1C[C@@H]3CN(C(=O)c4c(C)ncnc4C)C[C@@H]3C1)CC2 (some centres undefined)
0.034	0.004	CCCC[C@H]1CN(C[C@H]2CC[C@H](OCC)CC2)C(=O)OC12CCN(C1C[C@@H]3CN(C(=O)c4c(C)ccnc4C)C[C@@H]3C1)CC2 (some centres undefined)
0.027	0.012	CCCC[C@H]1CN(C[C@H]2CC[C@H](OC3CC3)CC2)C(=O)OC12CCN(C1C[C@@H]3CN(C(=O)c4c(C)ncnc4C)C[C@@H]3C1)CC2 (some centres undefined)
